Earlier results as cited in article PMC10459069, “Comparative Serum and Brain Pharmacokinetics of Quercetin after Oral and Nasal Administration to Rats as Lyophilized Complexes with β-Cyclodextrin Derivatives and Their Blends with Mannitol/Lecithin Microparticles” (Pharmaceutics, 2023).

How the values were obtained:
[1] = rats
[2] = set-up: method as in PMID 19720149; conditions: mice, 6-week treatment with Que-enriched diets (2 mg/g diet)
[3] = reference not given

Row | SMILES | Cmax/dose ratio ([1]; intragastric administration of 100 mg/kg of pure Que, ref Yang et al. (2016) 46) | levels in the brain ([1]; single oral administration of Que) | brain levels [2] [µg/g] | logP [3]
1 | O=c1c(O)c(-c2ccc(O)c(O)c2)oc2cc(O)cc(O)c12 [Que, Quercetin] | 0.03 | did not reveal measurable levels | 0.085 | 
2 | OC[C@@H](O)[C@@H](O)[C@H](O)[C@H](O)CO [mannitol, Mannitol] |  |  |  | −3.4
